The record followed here is patent US20170173052A1, “METHODS OF TREATING OVARIAN CANCER” (Cipla Limited, priority 2015, published 2017).

Like-named read-outs stand apart in the source and are kept apart here.

Assay [1] deals with eight human tumor cell lines of ovarian cancer. Briefly: In vitro cytotoxicity 3D clonogenic assay, panel. The format is cell-based. The conditions noted are these: for IC50: Homo sapiens, continuous exposure 8 to 13 days. The procedure:
(§1) In the present study methacycline and the reference compound paclitaxel were investigated for anticancer activity ex vivo in eight human tumor cell lines of ovarian cancer. Tests were carried out using a 3D clonogenic assay in 96-well format with image based read-out. The aim of the study was to investigate antitumor potency and tumor type selectivity of the compound. Cell lines were routinely passaged one or twice weekly. All cells were grown at 37° C. in a humidified atmosphere with 5% CO2 in RPMI 1640 medium (Biochrom) supplemented with 10% (v/v) fetal calf serum and 0.1 mg/mL gentamicin. The percentage of viable cells was determined in a Neubauer-hemocytometer using trypan blue exclusion.
The clonogenic assay was carried out in a 96 well plate format using ultra low attachment plates. For each test, cells were prepared as described above and assay plates were prepared as follows: each test well contained a layer of semi-solid medium with tumor cells (50 μL), and a second layer of medium supernatant with or without test compound (100 μL). The cell layer consisted of 2·10^3 to 3·10^3 tumor cells per well, which were seeded in 50 μL/well cell culture medium (IMDM, supplemented with 20% (v/v) fetal calf serum, 0.01% (w/v) gentamicin, and 0.4% (w/v) agar. After 24 hours the test compounds were added after serial dilution in cell culture medium, and left on the cells for the duration of the experiment (continuous exposure, 100 μl drug overlay). Test concentrations ranged from 0.01 μM to 316.2 μM (methacycline), and 0.000095 μM to 3 (paclitaxel). Every plate included six untreated control wells and drug-treated groups in duplicate at 9 concentrations. Cultures were incubated at 37° C. and 7.5% CO2 in a humidified atmosphere for 8 to 13 days and monitored closely for colony growth using an inverted microscope. Within this period, ex vivo tumor growth led to the formation of colonies with a diameter of >50 μm. At the time of maximum colony formation, counts were performed with an automatic image analysis system (Bioreader 5000-Wa Biosys GmbH). […]

For assay [2], the system named is OVXF IGR-OV1. Briefly: In vitro combination study, 2D monolayer CellTiter-Blue, 5x5 matrix. The format is cell-based, human. The conditions noted are these: single agent, four days, read-out: IC50, tumor cell viability, single agent. The method, then:
(§2) The objective of this study was to assess anti-tumor efficacy of methacycline in combination with paclitaxel in a 5×5 matrix combination format against various ovarian cancer cell lines. The compounds were tested in ovarian cell lines, namely OVXF A2780 and OVXF SK-OV-3, obtained from National Cancer Institute (Bethesda, Md., USA). OVXF SKOV-3 cells were obtained from American Type Culture Collection (Rockville, Md., USA). Authenticity of cell lines was confirmed at the DSMZ by STR analysis. Cell lines were routinely passaged once or twice weekly and maintained in culture for up to 20 passages. Cells were grown at 37° C. in a humidified atmosphere with 5% CO2 in RPMI 1640 medium (25 mM HEPES, with L-glutamine, Biochrom) supplemented with 10% (v/v) fetal calf serum and 0.1 mg/mL gentamicin. The percentage of viable cells was determined in a Neubauer-hemocytometer using trypan blue exclusion.
(§3) The CellTiter-Blue® Cell Viability Assay (#G8081, Promega) was used according to manufacturer's instructions. Briefly, cells were harvested from exponential phase cultures, counted and plated in 96-well flat-bottom microtiter plates at a cell density of 4,000-8,000 cells/well depending on the cell line's growth rate. After a 24 h recovery period to allow the cells to resume exponential growth, 10 μL of culture medium (twelve control wells/plate) or of culture medium with test compound were added, and treatment continued for four days. After four days treatment of cells, 20 μl/well CellTiter-Blue® reagent was added. Following an incubation period of up to four hours, fluorescence (FU) was measured by using the Enspire Multimode Plate Reader (excitation λ=531 nm, emission λ=615 nm). […]
(§4) In the present study, methacycline was tested alone and in combination with paclitaxel in order to investigate the ability to inhibit tumor cell growth of ovarian cancer cell lines in a 5×5 matrix combination format. Efficacy of methacycline combined with paclitaxel was assessed by measuring tumor cell viability using a 2D monolayer assay in cell lines OVXF A2780, OVXF IGR-OV1, OVXF SK-OV-3.
Background: Alamar Blue is a resazurin reagent that responds to reducing activity.

Assay [3] deals with eight selected human ovarian cancer cell lines. Briefly: In vitro cytotoxicity 2D assay (CellTiter-Blue cell viability), panel mean. The format is cell-based. The conditions noted are these: for IC50: 96 h treatment, mean over eight ovarian cancer cell lines, read-out: geometric mean absolute IC50 value. The text has this:
(§5) In the present study the human ovarian cancer cell lines OVXF 899, OVXF 1023, A2780, SK-OV-3, OVCAR-3, IGR-OV1, OVCAR-5 and NCI/ADR-RES were used. OVXF 899 and OVXF 1023 were established at Oncotest, Germany from the corresponding human patient derived xenograft. A2780, IGR-OV1, NCl/ADR-RES, OVCAR-3 and OVCAR-5 were kindly provided by the NCI (National Cancer Institute, Bethesda, Md., USA). SK-OV-3 was purchased from ATCC (Rockville, Md., USA). Authenticity of cell lines was confirmed at the DSMZ by STR (short tandem repeat) analysis, a PCR based DNA-fingerprinting methodology. Cell lines were routinely passaged once or twice weekly and maintained in culture for up to 20 passages. All cells were grown at 37° C. in a humidified atmosphere with 5% CO2 in RPMI 1640 medium (25 mM HEPES, with L-glutamine, #FG1385, Biochrom, Berlin, Germany) supplemented with 10% (v/v) fetal calf serum (Sigma, Taufkirchen, Germany) and 0.1 mg/mL gentamicin (Life Technologies, Karlsruhe, Germany).
(§6) The CellTiter-Blue® Cell Viability Assay (#G8081, Promega) was used according to manufacturer's instructions. Briefly, cells were harvested from exponential phase cultures, […] on the cell line's growth rate. After a 24 h recovery period to allow the cells to resume exponential growth, test compounds were added.
(§7) Following an incubation period of up to four hours, fluorescence (FU) was measured by using the Enspire Multimode Plate Reader (excitation λ=531 nm, emission λ=615 nm). For calculations, the mean values of duplicate/six fold (untreated control) data were used. Sigmoidal concentration-response curves were fitted to the data points (T/C values) obtained for each cell line using 4 parameter non-linear curve fit (Oncotest Warehouse Software).
The in vitro anti-tumor activity of methacycline in eight selected human ovarian cancer cell lines were evaluated. […] Anti-tumor activity was assessed by using the CellTiter-Blue® Cell Viability Assay. Potency is expressed as absolute IC50 and relative IC50 values, calculated by non-linear regression analysis. […]

The subject of assay [4] is OVCAR-5. Briefly: In vitro cytotoxicity 3D clonogenic assay. It is filed as cell-based, human. Particulars: based on relative IC50. The method, then: as §1
(§8) The clonogenic assay was carried out in a 96 well plate format using ultra low attachment plates. For each test, cells were prepared as described above and assay plates were prepared as follows: each test well contained a layer of semi-solid medium with tumor cells (50 μL), and a second layer of medium supernatant with or without test compound (100 μL). The cell layer consisted of 2·10^3 to 3·10^3 tumor cells per well, which were seeded in 50 μL/well cell culture medium (IMDM, supplemented with 20% (v/v) fetal calf serum, 0.01% (w/v) gentamicin, and 0.4% (w/v) agar. After 24 hours the test compounds were added after serial dilution in cell culture medium, and left on the cells for the duration of the experiment (continuous exposure, 100 μl drug overlay). Test concentrations ranged from 0.01 μM to 316.2 μM (methacycline), and 0.000095 μM to 3 (paclitaxel). Every plate included six untreated control wells and drug-treated groups in duplicate at 9 concentrations. Cultures were incubated at 37° C. and 7.5% CO2 in a humidified atmosphere for 8 to 13 days and monitored closely for colony growth using an inverted microscope. Within this period, ex vivo tumor growth led to the formation of colonies with a diameter of >50 μm. At the time of maximum colony formation, counts were performed with an automatic image analysis system (Bioreader 5000-Wa Biosys GmbH). 48 hours prior to evaluation, vital colonies were stained with a sterile aqueous solution of 2-(4-iodophenyl)-3-(4-nitrophenyl)-5-phenyltetrazolium chloride (1 mg/ml, 100 μl/well)

The test system of assay [5] is IGR-OV1. Briefly: In vitro cytotoxicity 3D clonogenic assay. It is filed as cell-based, human. Particulars: based on relative IC50. The procedure: as §1, §8
The subject of assay [6] is OVCAR3. Briefly: In vitro cytotoxicity 3D clonogenic assay. The format is cell-based, human. Particulars: based on relative IC50 (individual IC50 <1/2 mean IC50). The method, then: as §1, §8
Assay [7] deals with OVXF SK-OV-3. Briefly: In vitro combination study, 2D monolayer CellTiter-Blue, 5x5 matrix. The format is cell-based. Particulars: Homo sapiens, 96 h, single agent, four days, read-out: IC50, tumor cell viability, single agent. The method, then:
as §2
The CellTiter-Blue® Cell Viability Assay (#G8081, Promega) was used according to manufacturer's instructions. Briefly, cells were harvested from exponential phase cultures, counted and plated in 96-well flat-bottom microtiter plates at a cell density of 4,000-8,000 cells/well depending on the cell line's growth rate. […] Following an incubation period of up to four hours, fluorescence (FU) was measured by using the Enspire Multimode Plate Reader (excitation λ=531 nm, emission λ=615 nm). […]

For assay [8], the system named is OVXF A2780. The assay is described as above. The conditions noted are these: single agent, four days, read-out: IC50, tumor cell viability, single agent. It is filed as cell-based, human. The procedure:
as §2, §3, §4

The subject of assay [9] is ovarian cancer cell lines A2780, OVCAR3, OVCAR-5, and SK-OV-3. Briefly: In vitro cytotoxicity 3D clonogenic assay, responding lines. The format is cell-based, human. The conditions noted are these: range over A2780, OVCAR3, OVCAR-5, SK-OV-3, read-out: IC50 values, inhibition of colony formation. The method, then: as §1
The clonogenic assay was carried out in a 96 well plate format using ultra low attachment plates. For each test, cells were prepared as described above and assay plates were prepared as follows: each test well contained a layer of semi-solid medium with tumor cells (50 μL), and a second layer of medium supernatant with or without test compound (100 μL). […] Cultures were incubated at 37° C. and 7.5% CO2 in a humidified atmosphere for 8 to 13 days and monitored closely for colony growth using an inverted microscope. […]

The test system of assay [10] is OVCAR-5. Briefly: In vitro cytotoxicity 2D assay (CellTiter-Blue cell viability). Particulars: 96 h treatment, read-out: absolute IC50. It is filed as cell-based, human.
Excerpt: as §5, §6, §7
(§9) The in vitro anti-tumor activity of methacycline in eight selected human ovarian cancer cell lines were evaluated. The test compounds was applied at 10 concentrations in half-log increments up to 300 μM. As a reference compound paclitaxel was tested in parallel. Cells were treated for 96 h with the test compounds. Anti-tumor activity was assessed by using the CellTiter-Blue® Cell Viability Assay. Potency is expressed as absolute IC50 and relative IC50 values, calculated by non-linear regression analysis. Results are depicted in FIGS. 1-4.

The subject of assay [11] is SK-OV-3. Described as above. The format is cell-based, human. The conditions noted are these: 96 h treatment, read-out: absolute IC50.
Excerpt: as §5, §6, §7, §9

Assay [12] deals with OVCAR-3. Described as above. The conditions noted are these: 96 h treatment, read-out: absolute IC50. It is filed as cell-based, human.
Excerpt: as §5, §6, §7, §9

Assay [13] relates to NCI/ADR-RES. The description is as above. The format is cell-based, human. The conditions noted are these: 96 h treatment, read-out: absolute IC50.
Excerpt: as §5, §6, §7, §9

The subject of assay [14] is IGR-OV1. The description is as above. The conditions noted are these: 96 h treatment, read-out: absolute IC50. It is filed as cell-based, human.
Excerpt: as §5, §6, §7, §9

The subject of assay [15] is A2780. The assay is described as above. It is filed as cell-based, human. Particulars: 96 h treatment, read-out: absolute IC50.
Excerpt: as §5, §6, §7, §9

Assay [16] has as its system NCI-ADR-RES. Briefly: In vitro cytotoxicity 3D clonogenic assay. The format is cell-based, human. The method, then:
as §1, §8

Assay [17] concerns SK-OV-3. Briefly: In vitro cytotoxicity 3D clonogenic assay. The format is cell-based, human. The conditions noted are these: based on relative IC50 (individual IC50 <1/2 mean IC50). The procedure: as §1, §8
Assay [18] concerns OVXF 899L. Briefly: In vitro cytotoxicity 3D clonogenic assay. It is filed as cell-based, human. The procedure: as §1, §8
The subject of assay [19] is OVXF 1023L. Briefly: In vitro cytotoxicity 3D clonogenic assay. The format is cell-based, human. The procedure:
as §1, §8

Assay [20] relates to A2780. Briefly: In vitro cytotoxicity 3D clonogenic assay. It is filed as cell-based, human. The conditions noted are these: based on relative IC50 (individual IC50 <1/2 mean IC50). The procedure:
as §1, §8

With `CC(=O)O[C@H]1C(=O)[C@@]2(C)[C@H]([C@H](OC(=O)c3ccccc3)[C@]3(O)C[C@H](OC(=O)[C@H](O)[C@@H](NC(=O)c4ccccc4)c4ccccc4)C(C)=C1C3(C)C)[C@]1(OC(C)=O)CO[C@@H]1C[C@@H]2O` [paclitaxel], the IC50 (as a rule, the concentration at which inhibition is half-maximal) is 0.077 µM in [1] (read-out: mean absolute IC50 value, colony formation); 0.012 µM in assay [1] (read-out: mean relative IC50 value, colony formation); 0.003 µM in assay [2] (Homo sapiens, IGROV-1, 96 h); 0.045 µM in assay [3] (Homo sapiens); 0.009 µM in [7]. For the same compound, the “bottom plateaus of the concentration-effect curves of responding tumor models” value in [1] (responding tumor models) is 0% to 60. The “activity against colony formation” value in assay [4], in assay [5] and in assay [6] was “above average activity” throughout.

Turning to methacycline, the IC50 in [2] was 43.3 µM; in [8], 34.6 µM; in assay [3], 27.2 µM; in assay [9] it was 54.1 to 71.1 µM; in assay [10], 14.5 µM; in assay [11], 18.6 µM. Moreover, the IC50 is 17.5 µM in assay [12], 104 µM in assay [13], 7.92 µM in assay [14] and 22.7 µM in assay [15]. The “difference between the most sensitive and most resistant cell line” value in assay [3] (IGR-OV1 vs NCI/ADR-RES IC50) is 13 fold. Besides, the “activity against colony formation” value in assay [16] was “No activity”; in [17] it was “above average activity”; in assay [18], “No activity”; in assay [19] it was “No activity”; in assay [5], “No activity”; in assay [20], “above average activity”. Further, in assay [6], the “activity against colony formation” value was “above average activity”.
